Assay [1] concerns GM-DCs or FL-DCs. In words: Cytokine production (ELISA) by murine GM-DCs or FL-DCs with Aspergillus conidia. Format: cell-based, mouse. From the text: GM-DCs or FL-DCs were obtained from purified CD14+ monocytes from healthy donors or transplanted patients (1 month post-HSCT) cultured in Iscove's modified medium for 7-9 days, in the presence of rGM-CSF (Schering-Plough, Milan, Italy) and rIL-4 (Peprotech, Inalco, Milan, Italy) or FLT3-L (Immunex Corporation, Seattle, Wash.) (Blood. 2004; 103:4232-4239). DC recovery was between 20-30% reduced in cultures from transplanted patients. Murine GM-DCs or FL-DCs were obtained from bone marrow cells for 7-9 days, as described (Blood. 2004; 103:4232-4239). Thymosin alpha 1 and sThymosin alpha 1 were added to the cultures at 20 ng/mL. DCs (>99% CD11c+ consisting of 90-95% CD8-, 5-10% CD8+, and 1-5% B220+ cells) were purified from spleens (spDCs) by magnetic-activated sorting using CD11c MicroBeads and MidiMacs (Miltenyi Biotech). DC populations were further separated into CD8−, CD8+ and B220+ fractions by means of CD8 or B220 MicroBeads (Miltenyi Biotech). DCs were pulsed in serum-free Iscove medium for 24 hours with live unopsonized Aspergillus conidia or Zymosan from Saccharomyces cerevisiae (Sigma) or CpG-ODN 2006 as described.7 Phagocytosis was done as described (Blood. 2004; 103:4232-4239). Photographs were taken using a high Resolution Microscopy Color Camera AxioCam, using the AxioVision Software Rel. 3.1 (Carl Zeiss, Milan, Italy).
Cytokine content was assessed by enzyme-linked immunosorbent assays (Endogen Human Elisa Kits, R&D Systems and Euroclone, Milan, Italy). AID EliSpot assay kits (Amplimedical, Buttigliera Alta, Turin, Italy) were used on purified splenic CD4+ Tcells cocultured with conidia-pulsed DCs for 5 days to enumerate cytokine-producing cells (Blood. 2003; 102:3807-3814). 1-MT was used at 2 μM.
(B) Cytokine production (ELISA) by GM-DCs or FL-DCs cultured in serum-free medium (1×10^6 cells/mL) with unopsonized Aspergillus conidia (5×10^5/mL) for 24 hours. The IDO inhibitor 1-MT was added at 2 μM. Data are aggregated results from three independent experiments. The detection limits (pg/mL) of the assays were <16 for IL-12p70 and <12 for IL-10.
On the technique in general: In an ELISA, binding on a coated surface is turned into a signal by an enzyme label.

In assay [2] the test system is TLN CD4+ T lymphocytes, neutrophils. In words: Proliferation of TLN cells and suppressive activity of CD4+CD25+ T reg cells from DC-treated HSCT mice. Type of assay: in vivo, mouse. As to the method: IDO expression and functional activity were assessed as described in Nat. Immunol. 2002; 3:1097-1101. Generation, purification and activity of T reg cells Splenic CD4+ T-cells were cocultured with conidia-pulsed DCs for 5 days […] before flow cytometry or ELISPOT assay. 1-MT (Sigma-Aldrich) was used at 2 μM. CD4+CD25+ and CD4+CD25− cells (>90% pure on FACS analysis) were separated by magnetic cell sorting from lung and TLN (J. Immunol. 2006; 176:1712-1723). For T reg cell inhibition, 5×10^4 TLN T reg cells were added to 3×10^5 CD4+CD25− cells, both from transplanted mice, stimulated with 3×10^4 autologous Aspergillus conidia-pulsed spDCs or with or 1.5×10^5 allogeneic spDCs from naïve donor mice for five days before H^3-thymidine labeling. Purified peritoneal CD 11b+Gr−1+PMN (>98% pure on FACS analysis) (2×10^6) were exposed to resting conidia in the presence of 4×10^5 CD4+CD25+ for 60 min for oxidant production or 24 hours for cytokine production (J. Immunol. 2006; 176:1712-1723).
Mice received twice intraperitoneal injections of DCs, at weekly interval, starting a day after HSCT and infected a week after the last DC administration. Three days later, lung homogenates, CD4+ T cells (>98% on FACS analysis), CD4+CD25− (>98%) or CD4+CD25+ (>82%) purified with the specific Miltenyi Biotec isolation kits were assessed for pattern of pro- and anti-inflammatory (TNF-a/IL-10 in lung homogenates), Th1 (IFN-γ) or Th2 (IL-4) cytokine production by CD4+ cells stimulated with Aspergillus-pulsed DCs (Blood. 2003; 102:3807-3814) frequency of CD25+ IL-10^+ TGF-β+ T reg cells, lymphoproliferation and gene expression by RT-PCR. For proliferation, TLN CD4+ T lymphocytes were plated (10^5 cells/well) with 10^5 cells/well irradiated allogeneic splenocytes or autologous spDCs pulsed with conidia or 10 μg/mL Con A for five days before H^3-thymidine labeling.
(A) Murine CD4+ T lymphocytes from TLN of transplanted mice were stimulated with irradiated allogeneic splenocytes, autologous splenic DCs stimulated with conidia or Concanavalin A. T cell proliferation was assessed in a 5-day MLR assay and measured by H^3thymidine incorporation over the last 8 hours, (*) P<0.05, transplanted versus donor mice. (**) P<0.05, T cell- and/or DC-treated mice versus untreated mice. (***) P<0.05, Thymosin alpha 1-treated DCs versus untreated DCs. […] (D) Peritoneal neutrophils (PMN) were exposed to resting conidia in the presence of lung CD4+CD25+ T cells from FL-DCtreated (a) or Thymosin alpha 1-GM-DC-treated mice (b) for 60 min (for oxidant production, expressed as nanomoles O2-/10^6 cells) or 24 hours for cytokine production (pg/mL by ELISA). […]

The subject of assay [3] is lymphosarcoma cells. The note with it: BALB/c mice; cited from earlier work.
Where [4] appears, read: in response to Aspergillus conidia, 24 hours.
[5] abbreviates: mice receiving Thymosin alpha 1-treated GM-DCs.

No end group written: not given here.

On to “Thymosin alpha 1: naturally occurring thymic peptide; supplied as purified, endotoxin-free sterile lyophilized acetylated polypeptide from SciClone Pharmaceuticals (Ac-SDAAVDTSSEITTKDLKEKKEVVEEAEN; UniProt P06454 2-29, looked up)”, for which the “IL-10 production by cells from TLR9-/- or IFN-aβR-/- mice” value in assay [1] (GM-DCs or FL-DCs, in response to Thymosin alpha 1) is given as “did not occur”. In assay [1] (setting [4]), the “release of IL-10 and IL-12 by FL-DCs” value is recorded as “IL-10, more than IL-12”; the “release of IL-12 and IL-10 by GM-DCs” value was “induced release of IL-12 and IL-10”. For the same substance, the “TNF-a and oxidant production of neutrophils in the presence of lung T reg cells” value in assay [2] (T reg fraction induced by Thymosin alpha 1-treated GM-DCs) is given as “significantly inhibited”. Moreover, the “alloreactivity and antigen-specific responses of CD4+CD25- T cells in the presence of CD4+CD25+ T cells” value in assay [2] (T reg from mice receiving Thymosin alpha 1-treated GM-DCs) is on record as “both reduced”. In addition, in assay [2] (setting [5]), the “alloreactivity (proliferation of TLN cells to allogeneic splenocytes)” value is on record as “decreased” and the “pathogen-specific reactivity (proliferation to Aspergillus conidia)” value is listed as “recovered”. For the same substance, in assay [3], the “local sarcoma growth, liver and lung metastases of lymphosarcoma cells” value was “significantly reduced”.

These data come from patent publication US8022036B2, “Use of thymosin alpha 1 for the treatment of immunological diseases” (Sigma-Tau Industrie Farmaceutiche Riunite S.p.A., priority 2006, dated 2011).
